Patent publication US12091426B2, “Bifunctional degraders of hematopoietic progenitor kinase and therapeutic uses thereof” (Nurix Therapeutics, Inc., priority 2021, dated 2024)

Biological target: T1, HPK1 (Homo sapiens, UniProt Q92918)
T1 construct: A HiBiT tag was introduced by CRISPR on the N terminus of HPK1 in Jurkat cells; host or cells: Jurkat cells (ATCC TIB-152), monoclonal line with CRISPR knock-in of HiBiT at the endogenous HPK1 locus
Test: HPK1 Cellular HiBit Degradation Assay
Type: cell-based
Conditions: HiBiT HPK1 Jurkat cells, 24 hrs; for DC50: concentration at which 50% of HPK1 was remaining, read-out: DC50 Category; for Dmax: Jurkat, maximum degradation vs DMSO vehicle control, read-out: Dmax Category
In short: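 Jurkat cells with CRISPR knock-in N-terminal HiBiT-HPK1 were treated with CTMs (11-point, 3.16-fold, 10 uM to 0.1 nM final) for 24 hrs at 37° C. HiBiT lytic luminescence, with parental Jurkat as background and DMSO as 100%, gave % HPK1 remaining; four-parameter fit yielded DC50 and Dmax (100 minus lowest % remaining).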

T1 sequence (Q92918 whole entry): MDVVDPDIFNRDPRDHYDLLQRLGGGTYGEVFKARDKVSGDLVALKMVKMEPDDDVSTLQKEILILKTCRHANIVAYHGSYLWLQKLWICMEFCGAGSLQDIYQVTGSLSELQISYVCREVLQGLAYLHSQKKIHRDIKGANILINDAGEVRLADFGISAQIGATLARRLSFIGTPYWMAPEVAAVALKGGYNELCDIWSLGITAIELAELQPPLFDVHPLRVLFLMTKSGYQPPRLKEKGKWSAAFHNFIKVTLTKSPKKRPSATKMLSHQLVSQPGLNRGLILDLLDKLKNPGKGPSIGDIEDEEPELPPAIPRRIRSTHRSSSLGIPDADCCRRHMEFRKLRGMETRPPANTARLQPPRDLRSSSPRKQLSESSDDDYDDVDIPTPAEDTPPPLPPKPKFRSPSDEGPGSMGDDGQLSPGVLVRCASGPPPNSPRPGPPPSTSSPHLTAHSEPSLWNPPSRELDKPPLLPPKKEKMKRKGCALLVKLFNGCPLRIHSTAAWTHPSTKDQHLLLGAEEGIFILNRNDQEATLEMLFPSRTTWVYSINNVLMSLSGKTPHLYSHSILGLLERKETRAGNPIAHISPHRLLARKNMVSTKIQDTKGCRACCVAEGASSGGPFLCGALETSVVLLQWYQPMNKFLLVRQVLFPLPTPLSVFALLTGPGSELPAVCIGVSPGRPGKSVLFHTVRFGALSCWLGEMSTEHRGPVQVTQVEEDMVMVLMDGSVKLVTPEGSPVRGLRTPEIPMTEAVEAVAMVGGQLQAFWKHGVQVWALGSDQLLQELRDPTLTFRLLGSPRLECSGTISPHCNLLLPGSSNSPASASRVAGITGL

Question: Which DC50 does the source give for CC(C)n1cnc2cc(-c3ccc4c(c3)N([C@H]3C[C@@H](N5CCCCC5)C3)C(=O)C43CCN(C(=O)C4(C)CCN(C(=O)C5CCN(c6ncc(C7CCC(=O)NC7=O)cn6)CC5)CC4)CC3)nc(NC3CC3)c21 (mixture of isomers) [Example 220, (3RS)-3-(2-{4-[4-({6-[4-(cyclopropylamino)-3-(propan-2-yl)-3H-imidazo[4,5-c]pyridin-6-yl]-2-oxo-1-[(1S,3S)-3-(piperidin-1-yl)cyclobutyl]-1,2-dihydrospiro[indole-3,4′-piperidin]-1′-yl}carbonyl)-4-methylpiperidine-1-carbonyl]piperidin-1-yl}pyrimidin-5-yl)piperidine-2,6-dione] here?
Answer: < 100 nM

Question: What about the Dmax of the same compound?
Answer: 70 to 85%

Question: For CC(C(=O)N1CCN(C(=O)C2CCN(c3cc(C4CCC(=O)NC4=O)ccn3)CC2)CC1)N1CCC2(CC1)C(=O)N([C@H]1C[C@@H](N3CCCCC3)C1)c1cc(-c3cc4ncn(C(C)C)c4c(NC4CC4)n3)ccc12 (stereo partly drawn) [Example 173, 3-(2-{4-[4-(2-{6-[4-(cyclopropylamino)-3-(propan-2-yl)-3H-imidazo[4,5-c]pyridin-6-yl]-2-oxo-1-[(1S,3S)-3-(piperidin-1-yl)cyclobutyl]-1,2-dihydrospiro[indole-3,4′-piperidin]-1′-yl}propanoyl)piperazine-1-carbonyl]piperidin-1-yl}pyridin-4-yl)piperidine-2,6-dione], which DC50 is on record?
Answer: 100 to 500 nM

Question: What about the Dmax of the same compound?
Answer: 70 to 85%

Question: For CC(C)n1cnc2cc(-c3ccc4c(c3)N([C@H]3C[C@@H](N5CCCCC5)C3)C(=O)C43CCN(C(=O)C4(C)CCN(C(=O)C5CCN(c6ccc(C7CCC(=O)NC7=O)cn6)CC5)CC4)CC3)nc(N(C)C3CC3)c21 (stereo partly drawn) [Example 171, 3-[6-(4-{4-[(6-{4-[cyclopropyl(methyl)amino]-3-(propan-2-yl)-3H-imidazo[4,5-c]pyridin-6-yl}-2-oxo-1-[(1S,3S)-3-(piperidin-1-yl)cyclobutyl]-1,2-dihydrospiro[indole-3,4′-piperidin]-1′-yl)carbonyl]-4-methylpiperidine-1-carbonyl}piperidin-1-yl)pyridin-3-yl]piperidine-2,6-dione], which DC50 is on record?
Answer: 100 to 500 nM

Question: And the Dmax?
Answer: 70 to 85%

Question: How did the DC50 turn out when CC(C)n1cnc2cc(-c3ccc4c(c3)N([C@H]3C[C@@H](N5CCCCC5)C3)C(=O)C43CCN(C(=O)[C@@H]4CCN(C(=O)[C@H]5CC[C@H](N(C)c6ccc(C7CCC(=O)NC7=O)cn6)CC5)C4)CC3)nc(Nc3ccncc3F)c21 (mixture of isomers) [Example 128, (3RS)-3-(6-{methyl[(1R,4R)-4-[(3R)-3-[(6-{4-[(3-Fluoropyridin-4-yl)amino]-3-(propan-2-yl)-3H-imidazo[4,5-c]pyridin-6-yl}-2-oxo-1-[(1S,3S)-3-(piperidin-1-yl)cyclobutyl]-1,2-dihydrospiro[indole-3,4′-piperidin]-1′-yl)carbonyl]pyrrolidine-1-carbonyl]cyclohexyl]amino}pyridin-3-yl)piperidine-2,6-dione] was run?
Answer: < 100 nM

Question: What about the Dmax of the same compound?
Answer: > 85%

Question: What does the source list for CC(C)n1cnc2cc(-c3ccc4c(c3)N([C@H]3C[C@@H](N5CC6CCC(C6)C5)C3)C(=O)C43CCN(C(=O)C4(C)CCN(C(=O)C5CCN(c6ccc(C7CCC(=O)NC7=O)cn6)CC5)CC4)CC3)nc(NC3CC3)c21 (mixture of isomers) [Example 217, (3RS)-3-(6-{4-[4-({6-[4-(cyclopropylamino)-3-(propan-2-yl)-3H-imidazo[4,5-c]pyridin-6-yl]-2-oxo-1-[(1S,3S)-3-{3-Azabicyclo[3.2.1]octan-3-yl}cyclobutyl]-1,2-dihydrospiro[indole-3,4′-piperidin]-1′-yl}carbonyl)-4-methylpiperidine-1-carbonyl]piperidin-1-yl}pyridin-3-yl)piperidine-2,6-dione]?
Answer: DC50: < 100 nM; Dmax: > 85%

Question: Which DC50 does the source give for COC1CC(C(=O)N2CCC3(CC2)C(=O)N([C@H]2C[C@@H](N4CCCCC4)C2)c2cc(-c4cc5ncn(C(C)C)c5c(NC5CC5)n4)ccc23)CN(C(=O)C2CCN(c3ccc(C4CCC(=O)NC4=O)cn3)CC2)C1 (mixture of isomers) [Example 256, (3RS)-3-(6-{4-[3-({6-[4-(cyclopropylamino)-3-(propan-2-yl)-3H-imidazo[4,5-c]pyridin-6-yl]-2-oxo-1-[(1S,3S)-3-(piperidin-1-yl)cyclobutyl]-1,2-dihydrospiro[indole-3,4′-piperidin]-1′-yl}carbonyl)-5-methoxypiperidine-1-carbonyl]piperidin-1-yl}pyridin-3-yl)piperidine-2,6-dione] here?
Answer: 100 to 500 nM

Question: And the Dmax?
Answer: 50 to 70%

Question: How did the DC50 turn out when CC(C)n1cnc2cc(-c3ccc4c(c3)N([C@H]3C[C@@H](N5CCCCC5)C3)C(=O)C43CCN(C(=O)C4(C)CCN(C(=O)[C@H]5CC[C@H](Nc6ccc(N7CCC(=O)NC7=O)cn6)CC5)CC4)CC3)nc(NC3CC3)c21 [Example 192, 1-(6-{[(1R,4R)-4-[4-({6-[4-(cyclopropylamino)-3-(propan-2-yl)-3H-imidazo[4,5-c]pyridin-6-yl]-2-oxo-1-[(1S,3S)-3-(piperidin-1-yl)cyclobutyl]-1,2-dihydrospiro[indole-3,4′-piperidin]-1′-yl}carbonyl)-4-methylpiperidine-1-carbonyl]cyclohexyl]amino}pyridin-3-yl)-1,3-diazinane-2,4-dione] was run?
Answer: < 100 nM

Question: What about the Dmax of the same compound?
Answer: 70 to 85%

Question: What does the source list for CC(C)n1cnc2cc(-c3ccc4c(c3)N([C@H]3C[C@@H](N5CCC[C@H](F)C5)C3)C(=O)C43CCN(C(=O)C4(C)CCN(C(=O)C5CCN(c6ccc(C7CCC(=O)NC7=O)cc6)CC5)CC4)CC3)nc(NC3CC3)c21 (mixture of isomers) [Example 198, (3RS)-3-(4-{4-[4-({6-[4-(cyclopropylamino)-3-(propan-2-yl)-3H-imidazo[4,5-c]pyridin-6-yl]-2-oxo-1-[(1S,3S)-3-[(3S)-3-fluoropiperidin-1-yl]cyclobutyl]-1,2-dihydrospiro[indole-3,4′-piperidin]-1′-yl}carbonyl)-4-methylpiperidine-1-carbonyl]piperidin-1-yl}phenyl)piperidine-2,6-dione]?
Answer: DC50: 100 to 500 nM; Dmax: 70 to 85%

Question: CC(C)n1cnc2cc(-c3ccc4c(c3)N([C@H]3C[C@@H](N5CCCCC5)C3)C(=O)C43CCN(C(=O)C4(C)CCN(C(=O)N5CC6(C5)CN(c5ccc(C7CCC(=O)NC7=O)cn5)C6)CC4)CC3)nc(NC3CC3)c21 (stereo partly drawn) [Example 184, 3-(6-{6-[4-({6-[4-(cyclopropylamino)-3-(propan-2-yl)-3H-imidazo[4,5-c]pyridin-6-yl]-2-oxo-1-[(1S,3S)-3-(piperidin-1-yl)cyclobutyl]-1,2-dihydrospiro[indole-3,4′-piperidine]-1′-yl}carbonyl)-4-methylpiperidine-1-carbonyl]-2,6-diazaspiro[3.3]heptan-2-yl}pyridin-3-yl)piperidine-2,6-dione] was tested. Which DC50 did it give?
Answer: 100 to 500 nM

Question: What about the Dmax of the same compound?
Answer: 50 to 70%

Question: Which DC50 does the source give for CC(C)n1cnc2cc(-c3ccc4c(c3)N([C@H]3C[C@@H](N5CCCCC5)C3)C(=O)C43CCN(C(=O)C4(C)CCN(C(=O)C5CCN(c6ccc(C7CCC(=O)NC7=O)nn6)CC5)CC4)CC3)nc(NC3CC3)c21 (mixture of isomers) [Example 209, (3RS)-3-(6-{4-[4-({6-[4-(cyclopropylamino)-3-(propan-2-yl)-3H-imidazo[4,5-c]pyridin-6-yl]-2-oxo-1-[(1S,3S)-3-(piperidin-1-yl)cyclobutyl]-1,2-dihydrospiro[indole-3,4′-piperidin]-1′-yl}carbonyl)-4-methylpiperidine-1-carbonyl]piperidin-1-yl}pyridazin-3-yl)piperidine-2,6-dione] here?
Answer: < 100 nM

Question: What about the Dmax of the same compound?
Answer: 70 to 85%

Question: How did the DC50 turn out when CC(C)n1cnc2cc(-c3ccc4c(c3)N([C@H]3C[C@@H](N5CCCCC5)C3)C(=O)C43CCN(C(=O)[C@H]4CC[C@H](C(=O)N5CCC(N(C)c6ccc(C7CCC(=O)NC7=O)cn6)CC5)CC4)CC3)nc(Nc3ccccc3F)c21 (mixture of isomers) [Example 138, (3RS)-3-{6-[methyl({1-[(1R,4R)-4-[(6-{4-[(2-fluorophenyl)amino]-3-(propan-2-yl)-3H-imidazo[4,5-c]pyridin-6-yl}-2-oxo-1-[(1S,3S)-3-(piperidin-1-yl)cyclobutyl]-1,2-dihydrospiro[indole-3,4′-piperidin]-1′-yl)carbonyl]cyclohexanecarbonyl]piperidin-4-yl})amino]pyridin-3-yl}piperidine-2,6-dione] was run?
Answer: < 100 nM

Question: And the Dmax?
Answer: > 85%

Question: Which DC50 does the source give for CC(C)n1cnc2cc(-c3ccc4c(c3)N([C@H]3C[C@@H](N5CCCCC5)C3)C(=O)C43CCN(C(=O)[C@@H]4CCN(C(=O)C5CCN(c6ccc(C7CCC(=O)NC7=O)cn6)CC5)C4)CC3)nc(NC3CC3)c21 (mixture of isomers) [Example 23, (3RS)-3-(6-{4-[(3R)-3-({6-[4-(cyclopropylamino)-3-(propan-2-yl)-3H-imidazo[4,5-c]pyridin-6-yl]-2-oxo-1-[(1S,3S)-3-(piperidin-1-yl)cyclobutyl]-1,2-dihydrospiro[indole-3,4′-piperidin]-1′-yl}carbonyl)pyrrolidine-1-carbonyl]piperidin-1-yl}pyridin-3-yl)piperidine-2,6-dione] here?
Answer: < 100 nM

Question: What about the Dmax of the same compound?
Answer: 70 to 85%

Question: For CC(C)n1cnc2cc(-c3ccc4c(c3)N([C@H]3C[C@@H](N5CCCCC5)C3)C(=O)C43CCN(C(=O)C4CCN(C(=O)[C@H]5CC[C@H](C(=O)N6CCc7cc(N8CCC(=O)NC8=O)ccc7C6)CC5)CC4)CC3)nc(Nc3ccccc3F)c21 [Example 49, 1-{2-[(1R,4R)-4-{4-[(6-{4-[(2-fluorophenyl)amino]-3-(propan-2-yl)-3H-imidazo[4,5-c]pyridin-6-yl}-2-oxo-1-[(1S,3S)-3-(piperidin-1-yl)cyclobutyl]-1,2-dihydrospiro[indole-3,4′-piperidin]-1′-yl)carbonyl]piperidine-1-carbonyl}cyclohexanecarbonyl]-1,2,3,4-tetrahydroisoquinolin-6-yl}-1,3-diazinane-2,4-dione], which DC50 is on record?
Answer: 100 to 500 nM

Question: What about the Dmax of the same compound?
Answer: 50 to 70%
